Where “and” joins values, the source holds several entries; their conditions need not be identical. Equal entries are not always repeated.
Legend:
[1] = tested on: mouse insulinoma cells (MIN6); assay: Increase in fluorescence intensity (uptake) after administration of fluorescent glucose derivative to MIN6 cells, influence of cytochalasin B (CB) or phloretin (PHT), fluorescence microplate reader; type: cell-based; conditions: for effect of PHT on increase in fluorescence intensity (uptake) caused by administration: CDG and CLG on the same dish
[2] = tested on: mouse insulinoma cells (MIN6); assay: Influence of excessive D-glucose or L-glucose on increase in fluorescence intensity caused by CDG or CLG in MIN6 cells; type: cell-based; conditions: 100 μM, 37° C. 5 min, MIN6 culture day 13, versus non-excessive glucose control
Procedure: Whether or not increase in fluorescence intensity caused by the administration of the blue fluorescent D-glucose derivative CDG (100 μM) to the mouse insulinoma cells MIN6 at culture day 13 was inhibited by a large excess of D-glucose or L-glucose was examined. The blue fluorescent L-glucose derivative CLG was similarly analyzed as a control. However, the following conditions were changed.
Although the usual KRB solution contains 129 mM NaCl and 5.6 mM D-glucose, the osmotic pressure of a control solution (non-excessive glucose administration group solution) for this experiment was adjusted to 270 mOsm by substituting a portion of NaCl with choline-Cl, in order to equalize charge and osmotic pressure between the control solution and a KRB solution for excessive glucose administration. Also, the KRB solution for excessive glucose administration was allowed to contain NaCl and glucose according to the composition given below. In this respect, choline-Cl was added thereto in order to equalize osmotic pressure between this solution and the control solution (non-excessive glucose administration group solution).
100 mM NaCl and 5.6 mM D-glucose (non-excessive glucose administration group solution)
100 mM NaCl and 50 mM D-glucose (50 mM excessive D-glucose administration group solution)
100 mM NaCl, 50 mM L-glucose, and 5.6 mM D-glucose (50 mM excessive L-glucose administration group solution)
These dedicated KRB solutions were also used as a solution for preparing CDG and CLG solutions in this Example.
CDG and CLG were placed on different plates for the experiment. A CDG solution (or a CLG solution) prepared using each dedicated KRB solution was administered thereto using an 8-channel pipette (37° C., 5 min). Before the administration, replacement with each dedicated KRB solution was carried out in advance, and the autofluorescence of each well was measured with a fluorescence microplate reader. The time from the start of the replacement to immediately before the administration was approximately 28 minutes.
After the completion of the administration, first, the fluorescent solution in each well was temporarily diluted using 200 μL of the dedicated KRB solution and then diluted using 300 μL of the usual KRB solution.
The influence of the presence of 50 mM L-glucose was also studied as a control in evaluating the influence of the presence of a large excess (50 mM) of D-glucose on increase in fluorescence intensity.

[3] = tested on: MIN6 cell masses (spheroids); assay: Fluorescent imaging of tumor cell masses (spheroids) of MIN6 cells with mixed fluorescent glucose derivative solutions; type: cell-based, mouse; conditions: 3 minutes, 6 minutes after start of washout
Procedure: A fluorescent mixed solution containing 100 μM CDG, 100 μM 2-NBDLG, and 20 μM 2-TRLG (CDG/2-NBDLG/2-TRLG) was administered at 37° C. for 3 minutes to MIN6 cell masses (spheroids) at culture day 17, and fluorescent imaging was conducted.
10 μL of a culture solution containing MIN6 cells suspended at a density of 6×10^4 cells/mL was added dropwise onto each glass cover slip, and then, the glass cover slip was left standing for 40 minutes in an incubator for fixation to the glass surface. The cells were cultured by the addition of 3 mL of a culture solution (600 cells/slip). Spheroids were formed by continuing the culture for 15 to 17 days. Half the amount of the culture solution was replaced with a fresh one once every three days.
The MIN6 cells used were cells kindly provided by professor Junichi Miyazaki (Osaka University) and subcultured 6 to 10 times. Half the amount of the culture solution was replaced with a fresh one once every two days.
13.4 g of high glucose-containing Dulbecco's modified Eagle's Medium (DMEM-HG) (Sigma-Aldrich, #D5648), 3.4 g of NaHCO3, and 5 μL of 2-mercaptoethanol were dissolved in 1 L of ultrapure water, and the pH of the solution was adjusted to 7.30 to 7.35 in a CO2 incubator of 37° C. The culture solution was supplemented with fetal bovine serum (Hyclone, Cat# SH30070.03) at a final concentration of 10% and penicillin-streptomycin at a final concentration of 0.5%.
The whole amount of the 0.5 mg CDG vial was recovered using 0.73 mL in total of 10% DMSO and dissolved by addition to 7.0 ml of a KRB solution for image acquisition according to the method described in Non Patent Literature 2.
The whole amount of one 0.5 mg 2-NBDLG vial was dissolved in 7.3 mL of a KRB solution for image acquisition.
The CDG solution and the 2-NBDLG solution were mixed at a ratio of 1:1. The whole amount of the 0.2 mg 2-TRLG vial was recovered using 130 μL in total of DMSO and mixed with 13 ml of the CDG+2-NBDLG mixed solution according to the method described in Non Patent Literature 2 (final concentration: 100 μM CDG+100 μM 2-NBDLG+20 μM 2-TRLG mixed solution). […]
The glass cover slip with the cultured MIN6 cells was transferred into the KRB solution for image acquisition in a perfusion chamber loaded on a stage of a fluorescence microscope, followed by measurement. […]
The KRB solution for image acquisition was warmed in advance in an aluminum syringe heater and supplied to the perfusion chamber through hydrostatic pressure. […] Immediately before being introduced to the perfusion chamber, the solution was rewarmed via an inline heater so that the actually measured temperature of the perfusate in an observation region in the chamber was adjusted to 36±1° C. […]

SMILES: O=c1ccc2ccc(NC3C(O)OC(CO)[C@@H](O)[C@@H]3O)cc2o1 (stereo partly drawn) [CDG, 2-deoxy-2-(2-oxo-2H-chromen-7-yl)amino-D-glucose]
- fluorescence intensity in the presence of PHT relative to the absence of PHT ([1]; CDG 100 μM, 37° C. 5 minutes, PHT 150 μM, MIN6 culture day 13, average, two independent experiments): 28.5% and 28.8%
- effect of PHT on increase in fluorescence intensity (uptake) caused by administration ([1]; MIN6 culture day 15, 5 minutes): significantly inhibited
- effect of 50 mM D-glucose on increase in fluorescence intensity caused by administration [2]: significantly suppressed
- effect of 50 mM L-glucose on increase in fluorescence intensity caused by administration [2]: not suppressed
- uptake into cells of MIN6 spheroids, intracellular localization ([3]; 100 μM CDG+100 μM 2-NBDLG+20 μM 2-TRLG mixed solution, culture day 17): not only taken into the cytoplasm but unexpectedly taken into the nucleus

SMILES: O=c1ccc2ccc(NC3C(O)OC(CO)[C@H](O)[C@H]3O)cc2o1 (stereo partly drawn) [CLG, 2-deoxy-2-(2-oxo-2H-chromen-7-yl)amino-L-glucose]
- effect of PHT on increase in fluorescence intensity (uptake) caused by administration ([1]; MIN6 culture day 15, 5 minutes): significantly inhibited
- increase in fluorescence intensity caused by administration, compared with CDG (D/L stereoselectivity) ([1]; same dish, MIN6 culture day 15, 5 minutes): significantly smaller
- effect of 50 mM D-glucose on increase in fluorescence intensity caused by administration [2]: slightly inhibited
- effect of 50 mM L-glucose on increase in fluorescence intensity caused by administration [2]: not inhibited
- uptake into cells of MIN6 spheroids, intracellular localization ([3]; 100 μM CLG+100 μM 2-NBDLG+20 μM 2-TRLG mixed solution, culture day 15): strongly taken not only into the cytoplasm but into the nucleus
